Measured values from patent US8461149B2, “Compounds useful as protein kinase inhibitors” (Vertex Pharmaceuticals Incorporated, priority 2007, dated 2013).

Each compound was assayed against PLK1 (Homo sapiens, UniProt P53350) (assay: PLK1 inhibition assay (radioactive-phosphate incorporation)). Details: 150 μM ATP, 300 μM peptide, 4 nM PLK1, 90 minutes, 25° C., read-out: Ki in the radioactive incorporation assay (Ki(app)).
Chain of PLK1 (P53350 whole entry): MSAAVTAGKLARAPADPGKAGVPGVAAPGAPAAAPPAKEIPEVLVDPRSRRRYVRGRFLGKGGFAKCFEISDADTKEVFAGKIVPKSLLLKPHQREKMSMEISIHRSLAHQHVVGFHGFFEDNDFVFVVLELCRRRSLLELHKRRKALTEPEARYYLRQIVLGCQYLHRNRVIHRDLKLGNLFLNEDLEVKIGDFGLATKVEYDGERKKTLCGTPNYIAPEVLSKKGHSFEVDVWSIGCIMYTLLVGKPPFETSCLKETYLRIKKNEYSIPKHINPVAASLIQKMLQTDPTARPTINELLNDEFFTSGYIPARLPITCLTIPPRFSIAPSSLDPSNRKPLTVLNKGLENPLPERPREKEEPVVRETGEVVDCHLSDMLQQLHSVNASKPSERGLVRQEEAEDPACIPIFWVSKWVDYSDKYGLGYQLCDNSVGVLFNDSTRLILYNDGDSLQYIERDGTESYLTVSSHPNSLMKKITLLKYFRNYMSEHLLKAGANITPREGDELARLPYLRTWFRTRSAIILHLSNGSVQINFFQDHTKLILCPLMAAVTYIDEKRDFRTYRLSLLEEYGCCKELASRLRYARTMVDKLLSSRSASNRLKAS
Type: biochemical
Procedure: The compounds of the present invention are evaluated as inhibitors of human PLK kinase using the following assays.
Compounds were screened for their ability to inhibit PLK1 using a radioactive-phosphate incorporation assay. Assays were carried out in a mixture of 25 mM HEPES (pH 7.5), 10 mM MgCl2, 0.1% BSA, and 2 mM DTT. Final substrate concentrations were 150 μM (350 μM for determining values of less than 1 nM) [γ-33P]ATP (115 mCi 33P ATP/mmol ATP, Amersham Pharmacia Biotech/Sigma Chemicals) and 300 μM (450 μM for determining values of <1 nM) peptide (KKKISDELMDATFADQEAK) (SEQ ID NO:1). Assays were carried out at 25° C. in the presence of 4 nM (1 nM for determining values of less than 1 nM) PLK1. An assay stock buffer solution was prepared containing all of the reagents listed above, with the exception of ATP and the test compound of interest. 30 μL of the stock solution was placed in a 96 well plate followed by addition of 2 μL of DMSO stock containing serial dilutions of the test compound (typically starting from a final concentration of 10 μM with 2-fold serial dilutions) in duplicate (final DMSO concentration 5%). The plate was pre-incubated for 10 minutes at 25° C. and the reaction initiated by addition of 8 μL [γ-33P]ATP (final concentration 150 μM (350 μM for determining values of less than 1 nM))).
The reaction was stopped after 90 minutes (240 minutes for determining values of less than 1 nM) by the addition of 100 μL 0.14M phosphoric acid. A multiscreen phosphocellulose filter 96-well plate (Millipore, Cat. No. MAPHN0B50) was pretreated with 100 μL 0.2M phosphoric acid prior to the addition of 125 μL of the stopped assay mixture. The plate was washed with 200 μL 0.2M phosphoric acid for 4 times. After drying, 100 μL Optiphase ‘SuperMix’ liquid scintillation cocktail (Perkin Elmer) was added to the well prior to scintillation counting (1450 Microbeta Liquid Scintillation Counter, Wallac).
After removing mean background values for all of the data points, Ki(app) data were calculated from non-linear regression analysis of the initial rate data using the Prism software package (GraphPad Prism version 3.0cx for Macintosh, GraphPad Software, San Diego Calif., USA).
`COc1cc(C(=O)NC2CC2)ccc1Nc1ncc2c(n1)N([C@@H]1CCC(F)(F)C1)CC(C)(C)C(=O)N2C` [Compound I-1, (R)—N-cyclopropyl-4-(9-(3,3-difluorocyclopentyl)-5,7,7-trimethyl-6-oxo-6,7,8,9-tetrahydro-5H-pyrimido[4,5-b][1,4]diazepin-2-ylamino)-3-methoxybenzamide] gave a Ki of 1 to 10 nM. `COc1cc(C(=O)NC2CC2)ccc1Nc1ncc2c(n1)N([C@@H]1CCC(F)(F)C1)CC1(CC1)C(=O)N2C` [Compound I-4, (R)—N-cyclopropyl-4-(9′-(3,3-difluorocyclopentyl)-5′-methyl-6′-oxo-5′,6′,8′,9′-tetrahydrospiro[cyclopropane-1,7′-pyrimido[4,5-b][1,4]diazepine]-2′-ylamino)-3-methoxybenzamide] was tested, and the Ki was 1 to 10 nM. Work on `COc1cc(C(=O)N[C@@H]2CCC(F)(F)C2)ccc1Nc1ncc2c(n1)N([C@@H]1CCC(F)(F)C1)CC1(CC1)C(=O)N2C` [Compound I-5, N-((R)-3,3-difluorocyclopentyl)-4-(9′-((R)-3,3-difluorocyclopentyl)-5′-methyl-6′-oxo-5′,6′,8′,9′-tetrahydrospiro[cyclopropane-1,7′-pyrimido[4,5-b][1,4]diazepine]-2′-ylamino)-3-methoxybenzamide] yielded a Ki of 1 to 10 nM.

Same assay, conditions: conditions for values of less than 1 nM: 350 μM ATP, 450 μM peptide, 1 nM PLK1, 240 minutes, 25° C., read-out: Ki in the radioactive incorporation assay (Ki(app))
`COc1cc(C(=O)N[C@@H]2CC[C@@H](F)C2)ccc1Nc1ncc2c(n1)N([C@@H]1CCC(F)(F)C1)CC(C)(C)C(=O)N2C` [Compound I-2, 4-(9-((R)-3,3-difluorocyclopentyl)-5,7,7-trimethyl-6-oxo-6,7,8,9-tetrahydro-5H-pyrimido[4,5-b][1,4]diazepin-2-ylamino)-N-((1R,3R)-3-fluorocyclopentyl)-3-methoxybenzamide] was tested, and the Ki was < 1 nM. With `COc1cc(C(=O)N[C@@H]2CCC(F)(F)C2)ccc1Nc1ncc2c(n1)N([C@@H]1CCC(F)(F)C1)CC(C)(C)C(=O)N2C` [Compound I-3, N-((R)-3,3-difluorocyclopentyl)-4-(9-((R)-3,3-difluorocyclopentyl)-5,7,7-trimethyl-6-oxo-6,7,8,9-tetrahydro-5H-pyrimido[4,5-b][1,4]diazepin-2-ylamino)-3-methoxybenzamide] the Ki was < 1 nM. For `CCNC(=O)c1ccc(Nc2ncc3c(n2)N([C@@H]2CCC(F)(F)C2)[C@H](CC)c2nncn2-3)c(OC)c1` [Compound I-6, 4-((R)-5-((R)-3,3-difluorocyclopentyl)-4-ethyl-4,5-dihydro-[1,2,4]triazolo[4,3-f]pteridin-7-ylamino)-N-ethyl-3-methoxybenzamide], the Ki was < 1 nM. In the case of `CC[C@@H]1c2nncn2-c2cnc(Nc3ccc(C(=O)NC4CC4)cc3OC)nc2N1[C@@H]1CCC(F)(F)C1` [Compound I-7, N-cyclopropyl-4-((R)-5-((R)-3,3-difluorocyclopentyl)-4-ethyl-4,5-dihydro-[1,2,4]triazolo[4,3-f]pteridin-7-ylamino)-3-methoxybenzamide], the Ki is reported as < 1 nM. `CCNC(=O)c1ccc(Nc2ncc3c(n2)N([C@@H]2CCC(F)(F)C2)[C@H](CC)C(=O)N3C)c(OC)c1` [Compound I-8, 4-((R)-8-((R)-3,3-difluorocyclopentyl)-7-ethyl-5-methyl-6-oxo-5,6,7,8-tetrahydropteridin-2-ylamino)-N-ethyl-3-methoxybenzamide] was tested, and the Ki was < 1 nM. For `CC[C@@H]1C(=O)N(C)c2cnc(Nc3ccc(C(=O)NC4CC4)cc3OC)nc2N1[C@@H]1CCC(F)(F)C1` [Compound I-9, N-cyclopropyl-4-((R)-8-((R)-3,3-difluorocyclopentyl)-7-ethyl-5-methyl-6-oxo-5,6,7,8-tetrahydropteridin-2-ylamino)-3-methoxybenzamide], the Ki was < 1 nM.
